According to ChEMBL document CHEMBL5724914, “Linking interpersonal differences in gut microbiota composition and drug biotransformation activity” (2024):

Assays:
[1] = human gut metagenome, 24 h, 2 µM
[2] = human gut metagenome, 24 h, 2 µM; remark: listed apart in the source
[3] = human gut metagenome, 24 h, 2 µM; remark: listed apart in the source
[4] = (§1) The drug is tested on WLS-069 corresponding to human gut metagenome with ENA study accession number: PRJEB37062 and ENA sample accession number: ERS12561748 for biotransformation under anaerobic condition. The drug concentrations were measured over 9 timepoints collected between 0 and 24 hours of incubation by liquid-chromatography-coupled mass spectrometry (LC–MS); conditions: 2 µM
[5] = as §1, with “WLS-310” for “WLS-069”, “ERS12561785” for “ERS12561748”; conditions: 2 µM
[6] = as §1, with “WLS-220” for “WLS-069”, “ERS12561769” for “ERS12561748”; conditions: 2 µM
[7] = as §1, with “WLS-073” for “WLS-069”, “ERS12561749” for “ERS12561748”; conditions: 2 µM
[8] = human gut metagenome, 24 h, 2 µM; remark: listed apart in the source
[9] = as §1, with “WLS-039” for “WLS-069”, “ERS12561746” for “ERS12561748”; conditions: 2 µM
[10] = human gut metagenome, 24 h, 2 µM; remark: listed apart in the source
[11] = human gut metagenome, 24 h, 2 µM; remark: listed apart in the source
[12] = as §1, with “WLS-010” for “WLS-069”, “ERS12561743” for “ERS12561748”; conditions: 2 µM
[13] = as §1, with “Z-017” for “WLS-069”, “mouse” for “human”, “ERS12561816” for “ERS12561748”; conditions: 2 µM
[14] = human gut metagenome, 24 h, 2 µM; remark: listed apart in the source
[15] = human gut metagenome, 24 h, 2 µM; remark: listed apart in the source
[16] = human gut metagenome, 24 h, 2 µM; remark: listed apart in the source
[17] = as §1, with “WLS-240” for “WLS-069”, “ERS12561773” for “ERS12561748”; conditions: 2 µM
[18] = as §1, with “Z-004” for “WLS-069”, “to” for “to human gut”, “ERS12561804” for “ERS12561748”; conditions: 2 µM
[19] = as §1, with “Z-026” for “WLS-069”, “to” for “to human gut”, “ERS12561825” for “ERS12561748”; conditions: 2 µM
[20] = as §1, with “WLS-052” for “WLS-069”, “ERS12561747” for “ERS12561748”; conditions: 2 µM
Note: call rule not given here.

Structure (SMILES)	Bacterial Biotransformation [1]	Bacterial Biotransformation [2]	Bacterial Biotransformation [3]	Bacterial Biotransformation [4]	Bacterial Biotransformation [5]	Bacterial Biotransformation [6]	Bacterial Biotransformation [7]	Bacterial Biotransformation [8]	Bacterial Biotransformation [9]	Bacterial Biotransformation [10]	Bacterial Biotransformation [11]	Bacterial Biotransformation [12]	Bacterial Biotransformation [13]	Bacterial Biotransformation [14]	Bacterial Biotransformation [15]	Bacterial Biotransformation [16]	Bacterial Biotransformation [17]	Bacterial Biotransformation [18]	Bacterial Biotransformation [19]	Bacterial Biotransformation [20]
CCN1CCCC1CNC(=O)c1cc(S(N)(=O)=O)ccc1OC (stereo not given) [SULPIRIDE]	Compound NOT metabolized	Compound NOT metabolized	Compound metabolized	Compound metabolized	Compound metabolized	Compound NOT metabolized	Compound NOT metabolized	Compound metabolized	Compound NOT metabolized	Compound NOT metabolized	Compound metabolized	Compound metabolized	Compound NOT metabolized	Compound NOT metabolized	Compound metabolized	Compound NOT metabolized	Compound metabolized	Compound metabolized	Compound NOT metabolized	Compound NOT metabolized
Cc1nc(-c2ccc(OCC(C)C)c(C#N)c2)sc1C(=O)O [FEBUXOSTAT]	Compound metabolized	Compound metabolized	Compound metabolized	Compound metabolized	Compound metabolized	Compound metabolized	Compound NOT metabolized	Compound metabolized	Compound metabolized	Compound metabolized	Compound metabolized	Compound metabolized	Compound NOT metabolized	Compound metabolized	Compound metabolized	Compound metabolized	Compound metabolized	Compound NOT metabolized	Compound NOT metabolized	Compound metabolized
COC(=O)Nc1nc2ccc(C(=O)c3ccccc3)cc2[nH]1 [MEBENDAZOLE]	Compound NOT metabolized	Compound metabolized	Compound metabolized	Compound metabolized	Compound metabolized	Compound metabolized	Compound metabolized	Compound metabolized	Compound metabolized	Compound metabolized	Compound metabolized	Compound metabolized	Compound NOT metabolized	Compound metabolized	Compound metabolized	Compound metabolized	Compound metabolized	Compound metabolized	Compound NOT metabolized	Compound metabolized
CC(C)(C(=O)O)c1ccc(C(O)CCCN2CCC(C(O)(c3ccccc3)c3ccccc3)CC2)cc1 (stereo not given) [FEXOFENADINE]	Compound NOT metabolized	Compound NOT metabolized	Compound NOT metabolized	Compound NOT metabolized	Compound NOT metabolized	Compound NOT metabolized	Compound NOT metabolized	Compound NOT metabolized	Compound NOT metabolized	Compound NOT metabolized	Compound NOT metabolized	Compound NOT metabolized	Compound NOT metabolized	Compound NOT metabolized	Compound NOT metabolized	Compound NOT metabolized	Compound NOT metabolized	Compound NOT metabolized	Compound NOT metabolized	Compound NOT metabolized
COc1ccc(CCN(C)CCCC(C#N)(c2ccc(OC)c(OC)c2)C(C)C)cc1OC (stereo not given)	Compound NOT metabolized	Compound NOT metabolized	Compound metabolized	Compound metabolized	Compound metabolized	Compound metabolized	Compound metabolized	Compound metabolized	Compound metabolized	Compound NOT metabolized	Compound metabolized	Compound metabolized	Compound NOT metabolized	Compound metabolized	Compound metabolized	Compound metabolized	Compound metabolized	Compound NOT metabolized	Compound NOT metabolized	Compound NOT metabolized
COc1ccc2c(c1OC)C(=O)O[C@@H]2[C@H]1c2c(cc3c(c2OC)OCO3)CCN1C [NOSCAPINE]	Compound NOT metabolized	Compound NOT metabolized	Compound metabolized	Compound metabolized	Compound metabolized	Compound metabolized	Compound metabolized	Compound metabolized	Compound NOT metabolized	Compound NOT metabolized	Compound NOT metabolized	Compound NOT metabolized	Compound NOT metabolized	Compound NOT metabolized	Compound NOT metabolized	Compound NOT metabolized	Compound metabolized	Compound NOT metabolized	Compound NOT metabolized	Compound NOT metabolized
Nc1nc2ccc(OC(F)(F)F)cc2s1 [RILUZOLE]	Compound NOT metabolized	Compound metabolized	Compound metabolized	Compound metabolized	Compound metabolized	Compound metabolized	Compound metabolized	Compound metabolized	Compound metabolized	Compound metabolized	Compound metabolized	Compound metabolized	Compound NOT metabolized	Compound NOT metabolized	Compound metabolized	Compound metabolized	Compound metabolized	Compound metabolized	Compound metabolized	Compound metabolized
CCCc1nc2c(C)cc(-c3nc4ccccc4n3C)cc2n1Cc1ccc(-c2ccccc2C(=O)O)cc1	Compound metabolized	Compound metabolized	Compound metabolized	Compound metabolized	Compound metabolized	Compound metabolized	Compound metabolized	Compound metabolized	Compound metabolized	Compound metabolized	Compound metabolized	Compound metabolized	Compound metabolized	Compound metabolized	Compound metabolized	Compound metabolized	Compound metabolized	Compound metabolized	Compound metabolized	Compound metabolized
